Results: patent US20260191848A1, “METHODS OF REVERSING PARP-RESISTANCE IN CANCER” (THE TRUSTEES OF COLUMBIA UNIVERSITY IN THE CITY OF NEW YORK, priority 2023, published 2026)
“Also recorded” adds a separate entry of the source.

Key:
[1] = test system: talazoparib-resistant Brca1-def tumors; assay: Talazoparib-resistant Brca1-def orthotopic allograft in B6/129F1 mice (tumor growth, weight, immunostaining, body weight); format: in vivo, mouse; conditions: for body weight: from treatment initiation until endpoint, talazoparib 0.3 mg/kg/day, axitinib 30 mg/kg/day
Experimental: (§2) Treatment with Tal (0.3 mg/kg body weight per day, five days/week, oral gavage) began two weeks following tumor-cell injection. Tumors were collected after tumor relapse in the Tal-treated group and were then dissociated and selected to generate Tal-resistant Brca1-def breast cancer cell lines. […] Tal-resistant, Brca1-def tumors were then isolated at 13 weeks following tumor-cell injection. n=32 for Veh-treated mice; n=24 for Tal-treated mice. Data are presented as mean values±SEM. P values were determined by a two-tailed, unpaired, Mann-Whitney test. * at 2 weeks indicates P=0.0169; *** at 3 weeks indicates P=0.0007; **** at 5 and 7 weeks indicates P<0.0001. […] P values were determined by a two-tailed, unpaired, Mann-Whitney test. * at 3 weeks indicates P=0.0174; ns: not significant. […] Treatment began one-week post tumor-cell injection. […] Data are presented as mean values±SEM. P values were determined by a two-tailed, unpaired, Mann-Whitney test. ** at 3 and 4 weeks indicates P=0.0043; ** at 5 weeks indicates P=0.0095.

[2] = test system: talazoparib-resistant Bard1-def tumors; assay: Talazoparib-resistant Bard1-def orthotopic allograft in B6/129F1 mice (tumor growth, weight, immunostaining, body weight); format: in vivo, mouse; conditions: for body weight: from treatment initiation until endpoint, talazoparib 0.3 mg/kg/day, axitinib 30 mg/kg/day
Experimental: as §2

[3] = test system: Brca1-def Tal-sensitive tumors; assay: In-vivo PARPi-response-and-recurrence model, Brca1-def orthotopic allograft (talazoparib-sensitive)
Experimental: (§3) Treatment with Tal (0.3 mg/kg body weight per day, five days/week, oral gavage) began two weeks following tumor-cell injection. Tumors were collected after tumor relapse in the Tal-treated group and were then dissociated and selected to generate Tal-resistant Brca1-def breast cancer cell lines. […] Tal-resistant, Brca1-def tumors were then isolated at 13 weeks following tumor-cell injection. n=32 for Veh-treated mice; n=24 for Tal-treated mice. Data are presented as mean values±SEM. […] FIG. 1C, Mice were injected with the Tal-resistant (“Tal-Res”), Brca1-def breast cancer cell line isolated in B and then checked for sensitivity to Tal. n=21 for Veh-treated mice; n=31 for Tal-treated mice. […] Treatment began one-week post tumor-cell injection. […] Data are presented as mean values±SEM. […] FIG. 1F, Mice were injected with the Tal-Res, Bard1-def breast cancer cell line isolated in E and then checked for sensitivity to Tal. n=12 for Veh-treated mice; n=14 for Tal-treated mice.
(§4) To study mechanisms of PARPi resistance in vivo, mammary glands from syngeneic B6/129F1 mice were orthotopically injected with luciferase-labeled Brca1- or Bard1-deficient mammary cancer cell lines (hereafter referred to as Brca1-def and Bard1-def) derived from Brca1- or Bard1-conditionally deleted mice^23 (FIGS. 1A and 1D). As tumors started to grow, tumor-bearing mice were randomized and treated five days/week with either vehicle or the PARPi talazoparib (referred to as “Tal” in the figures) at a dose of 0.3 mg/kg body weight/day starting at either 14 days (Brca1-def) or 7 days (Bard1-def) post tumor-cell injection. Tumor size was monitored weekly (FIGS. 1B and 1E). […] While tumor growth in Brca1-def models was monitored for 13 weeks post tumor-cell injection, Bard1-def models could only be monitored for 5 weeks post tumor-cell injection due to the onset of cachexia, as described in the previous studies^36. PARPi-resistant tumors were then collected, and cancer cells were purified and re-injected into the mammary glands of new B6/129F1 recipient mice. Mice were treated following the same dosing schedule as described above.

[4] = test system: Bard1-def Tal-sensitive tumors; assay: In-vivo PARPi-response-and-recurrence model, Bard1-def orthotopic allograft (talazoparib-sensitive)
Experimental: as §3, §4

[5] = test system: relapsed high-grade ovarian cancer; conditions: relapsed high-grade ovarian cancer patients, p=0.007; cited from earlier work
[6] = test system: talazoparib-resistant Bard1-def tumor cells (pAKT Ser473, pSTAT3); assay: Immunoblot after recombinant PGF treatment, talazoparib-resistant Bard1-def tumor cells (Con vs Flt1i); format: cell-based; conditions: 50 ng/ml mouse recombinant PGF, serum-free medium, 10 min
Experimental: (§1) FIG. 18A-FIG. 18H—FLT1 activation in Brca1- and Bard1-def breast tumor cells induces pro-survival AKT signaling. (FIG. 18A, FIG. 18B) Immunoblot analysis was performed on lysates from Flt1-expressing (Con) and -deficient (Flt1i), talazoparib-resistant (“Res”) Brca1- and Bard1-def tumor cells, that were treated with 50 ng/ml of mouse PGF protein using antibodies against phosphorylated-AKT at serine 473 (pAKT Ser473), AKT, and β-actin. […] Scale bars, 20 μm. (FIG. 18D) Immunostained sections from (C) were quantified using automated QuPath software to identify positively stained cells. n=5 mice for Sen and Res groups for both models. Data were presented as mean values±SEM. […] (FIG. 18E) Representative images of IHC for pAKT Ser473 staining on talazoparib-treated “Tal”, Lenti-Con- and Flt1i-expressing Res tumor sections from both models (see FIG. 3C). Scale bars, 20 μm. […] (FIG. 18G) Representative images of IHC for pAKT Ser473 on Tal-treated and Tal+Axi-treated tumor sections from both models (see FIG. 4A/D). Scale bars, 20 μm. (FIG. 18H) Immunostained sections from (G) were quantified using automated QuPath software to identify positively stained cells. For the Brca1-def model, n=4 tumors from both Tal-treated and Tal+Axi-treated mice. For the Bard1-def model, n=5 tumors from both Tal-treated and Tal+Axi-treated mice. Data were presented as mean values±SEM. […]

[7] = test system: talazoparib-resistant Brca1-def tumor cells (pAKT Ser473, pSTAT3); assay: Immunoblot after recombinant PGF treatment, talazoparib-resistant Brca1-def tumor cells (Con vs Flt1i); format: cell-based; conditions: 50 ng/ml mouse recombinant PGF, serum-free medium, 15 s
Experimental: as §1

[8] = talazoparib alone 0.3 mg/kg/day, five days/week, vs vehicle

Cn1ncnc1[C@H]1c2n[nH]c(=O)c3cc(F)cc(c23)N[C@@H]1c1ccc(F)cc1 [talazoparib]
body weight [1]: remained stable
tumor growth and weight at endpoint, Flt1-repressed (Flt1i) resistant tumor cells ([1]; talazoparib 0.3 mg/kg body weight/day, five days/week, Flt1i+Tal vs Lenti-Con+Tal, endpoint 4 weeks): re-sensitizes PARPi-resistant tumors to talazoparib
tumor regression / response of PARPi-resistant tumor lines to PARPi treatment [1, 8]: no tumor regression; also recorded: failed to respond in-vivo
body weight [2]: remained stable
tumor growth and weight at endpoint, Flt1-repressed (Flt1i) resistant tumor cells ([2]; talazoparib 0.3 mg/kg body weight/day, five days/week, Flt1i+Tal vs Lenti-Con+Tal, endpoint 3 weeks): re-sensitizes PARPi-resistant tumors to talazoparib
tumor regression / response of PARPi-resistant tumor lines to PARPi treatment [2, 8]: no tumor regression; also recorded: failed to respond in-vivo
relapse, time following the start of Tal treatment ([3]; Tal 0.3 mg/kg per day, five days/week, oral gavage, begun two weeks after tumor-cell injection): about seven
development of drug resistance (recurrence of tumors) ([3]; continued talazoparib treatment, monitored 13 weeks post tumor-cell injection): eventually developed drug resistance; also recorded: eventually became refractory to the treatment
tumor growth ([3]; talazoparib 0.3 mg/kg body weight/day, five days/week, oral gavage, from 14 days post tumor-cell injection, vs vehicle): suppressed tumor growth for several weeks
relapse tumors arose, time post tumor-cell injection ([4]; Tal treatment begun one week post tumor-cell injection): about three
development of drug resistance (recurrence of tumors) ([4]; continued talazoparib treatment, monitored 5 weeks post tumor-cell injection): eventually developed drug resistance; also recorded: soon progressed
tumor growth ([4]; talazoparib 0.3 mg/kg body weight/day, five days/week, oral gavage, from 7 days post tumor-cell injection, vs vehicle): responded initially

O=C(c1cc(Cc2n[nH]c(=O)c3ccccc23)ccc1F)N1CCN(C(=O)C2CC2)CC1 [olaparib]
median progression-free survival (PFS) [5]: 8.2 months

CNC(=O)c1ccccc1Sc1ccc2c(/C=C/c3ccccn3)n[nH]c2c1 [axitinib]
body weight [1]: remained stable
body weight [2]: remained stable

B1: PGF: mouse recombinant PGF (R&D Systems, #465-PL-010), placental growth factor (protein)
chain: VHSQGALSAGNNSTEVEVVPFNEVWGRSYCRPMEKLVYILDEYPDEVSHIFSPSCVLLSRCSGCCGDEGLHCVPIKTANITMQILKIPPNRDPHFYVEMTFSQDVLCECRPILETTKAERRKTKGKRKRSRNSQTEEPHP
activation of AKT (pAKT Ser473 immunoblot) [6]: FLT1-dependent activation of AKT
activation of STAT3 (pSTAT3 immunoblot) [6]: not STAT3
activation of AKT (pAKT Ser473 immunoblot) [7]: FLT1-dependent activation of AKT
activation of STAT3 (pSTAT3 immunoblot) [7]: not STAT3
